Experimental data: patent US9481676B2, “Azepino[4,5-B]indoles and methods of use” (Medivation Technologies, Inc., priority 2008, dated 2016)

How the values were obtained:
[1] = biological target: T1, human recombinant dopamine D2L receptor (Homo sapiens, UniProt P14416); assay: Dopamine D2L radioligand binding ([3H]Spiperone); settings: compound at 1 μM; read-out: Dopamine (1 μM) D2L, percent inhibition of specific binding
T1 construct: expressed in transfected cells; host or cells: CHO cells
Summary of the method: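 Binding measured by filtration and counting, reported as % inhibition of specific [3H]spiperone binding (0.16 nM tracer; 10 μM haloperidol for nonspecific). Compounds tested at ≤1 μM in 1% DMSO for 120 min at 25° C against CHO-expressed human D2L in pH 7.4 Tris-HCl buffer.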

[2] = biological target: T2, human recombinant histamine H1 receptor (Homo sapiens, UniProt P35367); assay: Histamine H1 radioligand binding ([3H]Pyrilamine); settings: compound at 1 μM; read-out: Histamine Binding (1 μM) H1, percent inhibition of specific binding
T2 construct: expressed in transfected cells; host or cells: CHO cells
Summary of the method: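 Membranes from CHO cells expressing the receptor were incubated with compound and 1.2 nM [3H]pyrilamine for 180 min at 25 °C in 50 mM Tris-HCl pH 7.4 with MgCl2, NaCl and sucrose; 1 μM pyrilamine defined non-specific binding. Filter-bound radioactivity was counted.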

[3] = biological target: T3, human recombinant histamine H2 receptor (Homo sapiens, UniProt P25021); assay: Histamine H2 radioligand binding ([125I]Aminopotentidine); settings: compound at 1 μM; read-out: Histamine Binding (1 μM) H2, percent inhibition of specific binding
T3 construct: expressed in transfected cells; host or cells: CHO-K1 cells
Summary of the method: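 Membranes from CHO-K1 cells expressing recombinant human H2 receptor, in 50 mM phosphate buffer pH 7.4, incubated with 0.1 nM [125I]aminopotentidine for 120 min at 25 °C; nonspecific binding defined with 3 μM tiotidine.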

[4] = biological target: T4, human recombinant serotonin (5-Hydroxytryptamine) 5-HT2C receptor (Homo sapiens, UniProt P28335); assay: Serotonin 5-HT2C radioligand binding ([3H]Mesulergine); settings: compound at 1 μM; read-out: Serotonin (1 μM) 5-HT2C, percent inhibition of specific binding
T4 construct: expressed in transfected cells; host or cells: CHO-K1 cells
T4 sequence (P28335 33-458): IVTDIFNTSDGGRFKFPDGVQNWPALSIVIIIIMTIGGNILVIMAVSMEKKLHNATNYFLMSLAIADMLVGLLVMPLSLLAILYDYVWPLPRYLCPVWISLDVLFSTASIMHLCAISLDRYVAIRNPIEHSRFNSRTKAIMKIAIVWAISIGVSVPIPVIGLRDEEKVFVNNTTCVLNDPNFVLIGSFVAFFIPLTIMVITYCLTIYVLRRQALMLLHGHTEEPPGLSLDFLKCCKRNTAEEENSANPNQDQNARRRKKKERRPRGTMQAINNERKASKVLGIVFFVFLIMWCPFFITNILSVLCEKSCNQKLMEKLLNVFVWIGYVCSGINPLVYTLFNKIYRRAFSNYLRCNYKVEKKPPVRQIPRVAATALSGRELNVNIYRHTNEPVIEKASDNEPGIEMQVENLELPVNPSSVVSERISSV
Summary of the method: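 Membranes from CHO-K1 cells expressing human 5-HT2C, incubated with 1 nM [3H]mesulergine for 60 min at 25 °C in 50 mM Tris-HCl pH 7.4 with ascorbic acid and pargyline.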

T3 sequence (P25021 whole entry): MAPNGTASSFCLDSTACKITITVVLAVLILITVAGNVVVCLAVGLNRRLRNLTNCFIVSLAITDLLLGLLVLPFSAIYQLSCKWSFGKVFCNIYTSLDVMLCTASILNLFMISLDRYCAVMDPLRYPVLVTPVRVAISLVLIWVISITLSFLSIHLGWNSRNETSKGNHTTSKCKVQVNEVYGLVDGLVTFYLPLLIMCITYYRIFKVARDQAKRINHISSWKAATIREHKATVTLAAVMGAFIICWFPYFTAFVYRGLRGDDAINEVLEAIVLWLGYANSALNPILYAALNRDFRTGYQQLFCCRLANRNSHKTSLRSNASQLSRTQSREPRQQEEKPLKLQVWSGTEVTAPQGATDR
T1 sequence (P14416 whole entry): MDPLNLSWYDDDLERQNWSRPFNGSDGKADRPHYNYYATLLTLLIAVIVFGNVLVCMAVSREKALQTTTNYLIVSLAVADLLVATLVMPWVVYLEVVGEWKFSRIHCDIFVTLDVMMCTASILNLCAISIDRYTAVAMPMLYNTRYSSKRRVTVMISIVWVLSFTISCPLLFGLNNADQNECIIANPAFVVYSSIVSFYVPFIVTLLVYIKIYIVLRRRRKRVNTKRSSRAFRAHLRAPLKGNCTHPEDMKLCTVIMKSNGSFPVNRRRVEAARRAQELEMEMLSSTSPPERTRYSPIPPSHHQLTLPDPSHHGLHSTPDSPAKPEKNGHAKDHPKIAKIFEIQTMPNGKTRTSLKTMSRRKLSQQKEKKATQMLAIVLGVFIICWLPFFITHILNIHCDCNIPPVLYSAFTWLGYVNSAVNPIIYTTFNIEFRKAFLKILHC
T2 sequence (P35367 whole entry): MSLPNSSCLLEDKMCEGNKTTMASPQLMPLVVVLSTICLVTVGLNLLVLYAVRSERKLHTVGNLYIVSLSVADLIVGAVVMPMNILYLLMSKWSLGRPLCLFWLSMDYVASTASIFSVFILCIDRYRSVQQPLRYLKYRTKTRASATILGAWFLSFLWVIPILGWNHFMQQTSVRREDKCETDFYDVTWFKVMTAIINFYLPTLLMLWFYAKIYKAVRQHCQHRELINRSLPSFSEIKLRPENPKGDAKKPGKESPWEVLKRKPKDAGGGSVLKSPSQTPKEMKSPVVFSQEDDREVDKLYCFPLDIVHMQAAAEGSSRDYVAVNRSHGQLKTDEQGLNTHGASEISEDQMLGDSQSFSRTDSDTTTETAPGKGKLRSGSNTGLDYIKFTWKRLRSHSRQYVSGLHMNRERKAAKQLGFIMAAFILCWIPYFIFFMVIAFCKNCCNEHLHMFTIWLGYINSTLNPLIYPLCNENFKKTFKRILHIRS

For `Cc1ccc(C(O)Cn2c3c(c4cc(C)ccc42)CCN(C)CC3)cc1` (centres unmarked) [Compound No. 27, 2-(2,3,4,5-tetrahydro-3,9-dimethylazepino[4,5-b]indol-6(1H)-yl)-1-p-tolylethanol], the inhibition at 1 µM [1] was 58%, the inhibition at 1 µM [2] was 101% and the inhibition at 1 µM [3] was 78%. It also gave an inhibition at 1 µM [4] of 91%.

In the case of `Cc1ccc2c(c1)c1c(n2CCc2ccc(Cl)cc2)CCN(C)CC1` [Compound No. 28, 6-(4-chlorophenethyl)-1,2,3,4,5,6-hexahydro-3,9-dimethylazepino[4,5-b]indole], the inhibition at 1 µM [1] is reported as 67%, the inhibition at 1 µM [2] is reported as 103% and the inhibition at 1 µM [3] is reported as 97%. For the same molecule, the inhibition at 1 µM [4] was 94%.

Work on `CN1CCc2c(n(CCc3ccccc3Cl)c3ccc(Cl)cc23)CC1` [Compound No. 29, 6-(2-chlorophenethyl)-9-chloro-1,2,3,4,5,6-hexahydro-3-methylazepino[4,5-b]indole] yielded an inhibition at 1 µM [1] of 67%, an inhibition at 1 µM [2] of 98% and an inhibition at 1 µM [3] of 105%. The inhibition at 1 µM [4] was 101%.

Molecule `CN1CCc2c(n(CCc3ccc(Cl)cc3)c3ccc(Cl)cc23)CC1` [Compound No. 30, 6-(4-chlorophenethyl)-9-chloro-1,2,3,4,5,6-hexahydro-3-methylazepino[4,5-b]indole] has an inhibition at 1 µM [1] of 53%, an inhibition at 1 µM [2] of 102% and an inhibition at 1 µM [3] of 97%. For the same molecule, the inhibition at 1 µM [4] was 98%.

For `CC(C)NC(=O)Cn1c2c(c3cc(Cl)ccc31)CCN(C)CC2` [Compound No. 31, 2-(9-chloro-2,3,4,5-tetrahydro-3-methylazepino[4,5-b]indol-6(1H)-yl)-N-isopropylacetamide], the inhibition at 1 µM [1] was 4%, the inhibition at 1 µM [2] was 14% and the inhibition at 1 µM [3] was -10%. The inhibition at 1 µM [4] was 56%.

Work on `Cc1ccc2c(c1)c1c(n2CC(=O)N2CCCCC2)CCN(C)CC1` [Compound No. 32, 2-(2,3,4,5-tetrahydro-3,9-dimethylazepino[4,5-b]indol-6(1H)-yl)-1-(piperidin-1-yl)ethanone] yielded an inhibition at 1 µM [1] of -1%, an inhibition at 1 µM [2] of 11% and an inhibition at 1 µM [3] of -5%. For the same molecule, the inhibition at 1 µM [4] was 48%.

Molecule `C/C(=C\n1c2c(c3cc(C)ccc31)CCN(C)CC2)c1ccc(Cl)cc1` [Compound No. 33, 6-((E)-2-(4-chlorophenyl)prop-1-enyl)-1,2,3,4,5,6-hexahydro-3,9-dimethylazepino[4,5-b]indole] has an inhibition at 1 µM [1] of 35%, an inhibition at 1 µM [2] of 87% and an inhibition at 1 µM [3] of 101%. For the same molecule, the inhibition at 1 µM [4] was 86%.

`C/C(=C\n1c2c(c3cc(C)ccc31)CCN(C)CC2)c1ccc(F)cc1` [Compound No. 34, 6-((E)-2-(4-fluorophenyl)prop-1-enyl)-1,2,3,4,5,6-hexahydro-3,9-dimethylazepino[4,5-b]indole] gave an inhibition at 1 µM [1] of 90%, an inhibition at 1 µM [2] of 95% and an inhibition at 1 µM [3] of 103%. For the same molecule, the inhibition at 1 µM [4] was 97%.

`C=C(Cn1c2c(c3cc(Cl)ccc31)CCN(C)CC2)c1ccc(Cl)cc1` [Compound No. 35, 9-chloro-6-(2-(4-chlorophenyl)allyl)-3-methyl-1,2,3,4,5,6-hexahydroazepino[4,5-b]indole] showed an inhibition at 1 µM [1] of 50%, an inhibition at 1 µM [2] of 100% and an inhibition at 1 µM [3] of 104%. It also gave an inhibition at 1 µM [4] of 91%.

In the case of `C/C(=C\n1c2c(c3cc(Cl)ccc31)CCN(C)CC2)c1ccc(Cl)cc1` [Compound No. 36, 9-chloro-6-((E)-2-(4-chlorophenyl)prop-1-enyl)-1,2,3,4,5,6-hexahydro-3-methylazepino[4,5-b]indole], the inhibition at 1 µM [1] is reported as 34%, the inhibition at 1 µM [2] is reported as 88% and the inhibition at 1 µM [3] is reported as 104%. For the same molecule, the inhibition at 1 µM [4] was 83%.

In the case of `CN1CCc2c(n(CC(=O)Nc3ccc(F)cc3)c3ccc(Cl)cc23)CC1` [Compound No. 37, 2-(9-chloro-2,3,4,5-tetrahydro-3-methylazepino[4,5-b]indol-6(1H)-yl)-N-(4-fluorophenyl) acetamide], the inhibition at 1 µM [1] is reported as 9%, the inhibition at 1 µM [2] is reported as 13% and the inhibition at 1 µM [3] is reported as 4%. For the same molecule, the inhibition at 1 µM [4] was 85%.

`Cc1ccc2c(c1)c1c(n2CC(=O)N2CCOCC2)CCN(C)CC1` [Compound No. 38, 2-(2,3,4,5-tetrahydro-3,9-dimethylazepino[4,5-b]indol-6(1H)-yl)-1-morpholinoethanone] gave an inhibition at 1 µM [1] of 21%, an inhibition at 1 µM [2] of 83% and an inhibition at 1 µM [3] of 26%. The inhibition at 1 µM [4] was 98%.

`Cc1ccc2c(c1)c1c(n2/C=C/c2ccc(F)cc2)CCN(C)CC1` [Compound No. 39, 6-(4-fluorostyryl)-1,2,3,4,5,6-hexahydro-3,9-dimethylazepino[4,5-b]indole] gave an inhibition at 1 µM [1] of 66%, an inhibition at 1 µM [2] of 98% and an inhibition at 1 µM [3] of 91%. For the same molecule, the inhibition at 1 µM [4] was 97%.

Work on `CN1CCc2c(n(CC(O)c3ccccc3F)c3ccc(Cl)cc23)CC1` (centres unmarked) [Compound No. 40, 2-(9-chloro-2,3,4,5-tetrahydro-3-methylazepino[4,5-b]indol-6(1H)-yl)-1-(2-fluorophenyl)ethanol] yielded an inhibition at 1 µM [1] of 46%, an inhibition at 1 µM [2] of 101% and an inhibition at 1 µM [3] of 61%. The inhibition at 1 µM [4] was 97%.

Molecule `Cc1ccc2c(c1)c1c(n2CC(O)c2ccccc2F)CCN(C)CC1` (centres unmarked) [Compound No. 41, 1-(2-fluorophenyl)-2-(2,3,4,5-tetrahydro-3,9-dimethylazepino[4,5-b]indol-6(1H)-yl)ethanol] has an inhibition at 1 µM [1] of 34%, an inhibition at 1 µM [2] of 100% and an inhibition at 1 µM [3] of 52%. It also gave an inhibition at 1 µM [4] of 99%.

`CN1CCc2c(n(CC(O)c3ccncc3)c3ccc(Cl)cc23)CC1` (centres unmarked) [Compound No. 42, 2-(9-chloro-2,3,4,5-tetrahydro-3-methylazepino[4,5-b]indol-6(1H)-yl)-1-(pyridin-4-yl)ethanol] showed an inhibition at 1 µM [1] of 8%, an inhibition at 1 µM [2] of 103% and an inhibition at 1 µM [3] of 45%. For the same molecule, the inhibition at 1 µM [4] was 101%.

Molecule `Cc1ccc2c(c1)c1c(n2CC(O)c2ccncc2)CCN(C)CC1` (centres unmarked) [Compound No. 43, 2-(2,3,4,5-tetrahydro-3,9-dimethylazepino[4,5-b]indol-6(1H)-yl)-1-(pyridin-4-yl)ethanol] has an inhibition at 1 µM [1] of 4%, an inhibition at 1 µM [2] of 100% and an inhibition at 1 µM [3] of 30%. The inhibition at 1 µM [4] was 91%.

Molecule `Cc1ccc2c(c1)c1c(n2CC(=O)Nc2ccc(F)cc2)CCN(C)CC1` [Compound No. 44, N-(4-fluorophenyl)-2-(2,3,4,5-tetrahydro-3,9-dimethylazepino[4,5-b]indol-6(1H)-yl)acetamide] has an inhibition at 1 µM [1] of -8%, an inhibition at 1 µM [2] of 16% and an inhibition at 1 µM [3] of 1%. For the same molecule, the inhibition at 1 µM [4] was 41%.

Molecule `Cc1ccc2c(c1)c1c(n2CC(=O)N2CCCC2)CCN(C)CC1` [Compound No. 45, 2-(2,3,4,5-tetrahydro-3,9-dimethylazepino[4,5-b]indol-6(1H)-yl)-1-(pyrrolidin-1-yl)ethanone] has an inhibition at 1 µM [1] of -6%, an inhibition at 1 µM [2] of 13% and an inhibition at 1 µM [3] of 7%. The inhibition at 1 µM [4] was 16%.

In the case of `Cc1ccc(CCn2c3c(c4cc(Cl)ccc42)CCN(C)CC3)cc1` [Compound No. 46, 9-chloro-3-methyl-6-(4-methylphenethyl)-1,2,3,4,5,6-hexahydroazepino[4,5-b]indole], the inhibition at 1 µM [1] is reported as 79%, the inhibition at 1 µM [2] is reported as 108% and the inhibition at 1 µM [3] is reported as 89%. The inhibition at 1 µM [4] was 98%.

In the case of `COc1ccc(C(O)Cn2c3c(c4cc(Cl)ccc42)CCN(C)CC3)cc1` (centres unmarked) [Compound No. 47, 2-(9-chloro-2,3,4,5-tetrahydro-3-methylazepino[4,5-b]indol-6(1H)-yl)-1-(4-methoxyphenyl)ethanol], the inhibition at 1 µM [1] is reported as 45%, the inhibition at 1 µM [2] is reported as 100% and the inhibition at 1 µM [3] is reported as 70%. For the same molecule, the inhibition at 1 µM [4] was 98%.

Molecule `COc1ccc(C(O)Cn2c3c(c4cc(C)ccc42)CCN(C)CC3)cc1` (centres unmarked) [Compound No. 48, 2-(2,3,4,5-tetrahydro-3,9-dimethylazepino[4,5-b]indol-6(1H)-yl)-1-(4-methoxyphenyl) ethanol] has an inhibition at 1 µM [1] of 31%, an inhibition at 1 µM [2] of 98% and an inhibition at 1 µM [3] of 56%. The inhibition at 1 µM [4] was 98%.

Molecule `COc1ccc(C(O)Cn2c3c(c4cc(Cl)ccc42)CCN(C)CC3)c(F)c1` (centres unmarked) [Compound No. 49, 2-(9-chloro-2,3,4,5-tetrahydro-3-methylazepino[4,5-b]indol-6(1H)-yl)-1-(2-fluoro-4-methoxyphenyl) ethanol] has an inhibition at 1 µM [1] of 32%, an inhibition at 1 µM [2] of 94% and an inhibition at 1 µM [3] of 65%. For the same molecule, the inhibition at 1 µM [4] was 98%.
